In ChEMBL document CHEMBL4152345, “Discovery of Novel 1,3,8-Triazaspiro[4.5]decane Derivatives That Target the c Subunit of F1/FO-Adenosine Triphosphate (ATP) Synthase for the Treatment of Reperfusion Damage in Myocardial Infarction” (J Med Chem, 2018):
Activity calls are given as the source filed them. No cut-off for these calls is given here.

Tests used:
HeLa [1] = assay: Inhibition of F1F0-ATP synthase subunit C in human HeLa cells assessed as reduction of ionomycin-induced Ca2+ mediated mPTP opening at 1 uM preincubated for 30 secs followed by ionomycin addition by calcein-cobalt based assay relative to control; type: cell-based
HeLa [2] = assay: Cytotoxicity against human HeLa cells assessed as reduction in cell viability at 1 to 10 uM after 24 to 48 hrs by MTT assay; type: cell-based
HeLa [3] = assay: Reduction in mitochondrial ATP content in human HeLa cells expressing mitochondrially targeted Photinus pyralis luciferase at 1 uM by luciferin-luciferase assay; type: ADME, cell-based
HeLa [4] = assay: Reduction in mitochondrial ATP content in human HeLa cells expressing mitochondrially targeted Photinus pyralis luciferase at 1 uM in presence of 100 um histamine by luciferin-luciferase assay; type: ADME, cell-based
HeLa [5] = assay: Effect on basal mitochondrial membrane potential in human HeLa cells by TMRM dye based fluorescence assay; type: ADME, cell-based
HeLa [6] = assay: Inhibition of F1F0-ATP synthase subunit C in human HeLa cells assessed as reduction of cytC release at 1 uM after 5 mins by immunoblot analysis; type: cell-based
HeLa [7] = assay: Effect on network volume of mitochondria in human HeLa cells after 24 hrs by calcin staining based microscopic analysis; type: ADME, cell-based
HeLa [8] = assay: Effect on number of mitochondria in human HeLa cells after 24 hrs by mtCherry staining based microscopic analysis; type: ADME, cell-based
HeLa [9] = assay: Cytotoxicity against human HeLa cells assessed as reduction in cell viability at 1 to 10 uM after 72 hrs by MTT assay; type: cell-based
HeLa [10] = assay: Effect on mitochondrial calcium uptake in human HeLa cells after 24 hrs by aequorin luminometric analysis; type: ADME, cell-based
Mus musculus = species on record: Mus musculus; assay: Inhibition of Inhibition of F1F0-ATP synthase subunit C in SV129 mouse liver mitochondria assessed as reduction of Ca2+ induced mPTP opening by measuring reduction in mitochondrial swelling at 1 uM measured after 10 mins relative to control
HeLa [11] = assay: Inhibition of F1F0-ATP synthase subunit C in human HeLa cells assessed as enzyme dimerization by measuring mitochondrial permeability transition at 1 uM by PLA based assay; type: cell-based
HeLa [12] = assay: Inhibition of F1F0-ATP synthase subunit C in human HeLa cells assessed as reduction in apoptosis by TUNEL assay; type: cell-based
HeLa [13] = assay: Effect on mitochondrial morphology in human HeLa cells after 24 hrs by mtCherry staining based microscopic analysis; type: ADME, cell-based
Heart [14] = assay: Cardioprotective activity in Langendorff perfused Wistar rat heart model of ischemia-reperfusion injury model assessed as increase left ventricular developed pressure at 10 uM dosed during first 10 mins reflow; type: functional
Heart [15] = assay: Cardioprotective activity in Langendorff perfused Wistar rat heart model of ischemia-reperfusion injury model assessed as reduction of apoptosis at 10 uM dosed during first 10 mins reflow by TUNEL assay; type: functional
Heart [16] = assay: Cardioprotective activity in Langendorff perfused Wistar rat heart model of ischemia-reperfusion injury model assessed as reduction of end diastolic pressure at 10 uM dosed during first 10 mins reflow; type: functional; design: scale not given: the % may be the effect or the level left
Heart [17] = assay: Cardioprotective activity in Langendorff perfused Wistar rat heart model of ischemia-reperfusion injury model assessed as reduction of coronary perfusion pressure at 10 uM dosed during first 10 mins reflow; type: functional; design: scale not given: the % may be the effect or the level left
[18] = Drug uptake in human HeLa cells mitochondrial fraction by HPLC-HRMS analysis; type: ADME, mitochondria, Mitochondria
[19] = Drug uptake in human HeLa cells endoplasmic reticulam fraction by HPLC-HRMS analysis; type: ADME, subcellular
[20] = Drug uptake in human HeLa cells cytosolic fraction by HPLC-HRMS analysis; type: ADME, subcellular; conditions: cytosol
[21] = Drug uptake in human HeLa cells mitochondrial fraction assessed as retention time by HPLC-HRMS analysis; type: ADME, mitochondria, Mitochondria
HeLa [22] = assay: Binding affinity of F1F0-ATP synthase c subunit in human HeLa cells at 60 to 80 degC after 30 mins by cellular thermal shift assay; type: cell-based
Homo sapiens = species on record: Homo sapiens; assay: Binding affinity of F1F0-ATP synthase c subunit in isolated mitochondria of human HeLa cells after 30 mins by UPLC-XEVO-TQD analysis
[23] = target: ATP synthase F(1) complex subunit alpha, mitochondrial (Homo sapiens) (UniProt P25705); assay: Binding affinity of ATP5A in human HeLa cells assessed as melting temperature after 30 mins by cellular thermal shift assay; type: cell-based
Sequence of ATP synthase F(1) complex subunit alpha, mitochondrial (Homo sapiens) (P25705 whole entry, one chain of several): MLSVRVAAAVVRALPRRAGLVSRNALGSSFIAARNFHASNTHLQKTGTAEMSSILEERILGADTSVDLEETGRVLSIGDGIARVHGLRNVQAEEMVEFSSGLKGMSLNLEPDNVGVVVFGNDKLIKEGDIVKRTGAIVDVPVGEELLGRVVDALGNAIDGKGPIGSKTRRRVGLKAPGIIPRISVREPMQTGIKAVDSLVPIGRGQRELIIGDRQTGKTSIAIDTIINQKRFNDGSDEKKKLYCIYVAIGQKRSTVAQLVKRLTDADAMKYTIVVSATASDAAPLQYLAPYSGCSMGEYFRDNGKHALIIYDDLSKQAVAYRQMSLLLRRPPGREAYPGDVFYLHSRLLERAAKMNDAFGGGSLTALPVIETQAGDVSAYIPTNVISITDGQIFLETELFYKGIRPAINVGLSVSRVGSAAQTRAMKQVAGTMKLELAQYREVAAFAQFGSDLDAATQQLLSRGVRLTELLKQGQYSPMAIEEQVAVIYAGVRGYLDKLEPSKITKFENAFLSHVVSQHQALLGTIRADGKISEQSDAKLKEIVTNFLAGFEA

For `O=C1NCN(c2ccc(F)cc2)C12CCN(Cc1ccccc1)CC2`, the inhibition (HeLa [1]) was 42.9%.
For `CC(=O)N1CCC2(CC1)C(=O)NCN2c1ccccc1`, the inhibition (HeLa [1]) was 47.9%.
In the case of `O=C1NCN(c2cccc(C(F)(F)F)c2)C12CCN(Cc1ccccc1)CC2`, the Activity (HeLa [2]) is reported as “Non-Toxic”, the Activity (HeLa [3]) is reported as “Non-Toxic” and the Activity (HeLa [4]) is reported as “Non-Toxic”. The Activity (HeLa [5]) was “Non-Toxic”, the inhibition (HeLa [6]) was “Active” and the Activity (HeLa [7]) was “Non-Toxic”. The inhibition (HeLa [1]) was 65.5%, the Activity (HeLa [8]) was “Non-Toxic” and the Activity (HeLa [9]) was “Toxic”. For the same compound, the Activity (HeLa [10]) was “Non-Toxic”, the inhibition (Mus musculus) was “Active” and the inhibition (HeLa [11]) was “Active”. The inhibition (HeLa [12]) was “Active” and the Activity (HeLa [13]) was “Non-Toxic”.
For `O=C1NCN(c2ccccc2)C12CCN(S(=O)(=O)c1ccc(Cl)s1)CC2`, the Activity (HeLa [2]) was “Non-Toxic”, the Activity (HeLa [3]) was “Non-Toxic” and the Activity (HeLa [4]) was “Non-Toxic”. For the same compound, the Activity (HeLa [5]) was “Non-Toxic”, the Activity (Heart [14]) was 36.4% and the Activity (Heart [15]) was “Active”. The Activity (Heart [16]) was 72%, the inhibition (HeLa [6]) was “Active” and the Activity (HeLa [7]) was “Non-Toxic”. For the same compound, the inhibition (HeLa [1]) was 66.8%, the Activity (HeLa [8]) was “Non-Toxic” and the Activity (HeLa [9]) was “Toxic”. For the same compound, the Activity (HeLa [10]) was “Non-Toxic”, the inhibition (Mus musculus) was “Active” and the Activity (Heart [17]) was 17.5%. The inhibition (HeLa [11]) was “Active”, the inhibition (HeLa [12]) was “Active” and the Activity (HeLa [13]) was “Non-Toxic”.
With `CC(C)c1ccc(N2C=NC(=O)C23CCN(Cc2ccccc2)CC3)cc1` the inhibition (HeLa [1]) was 6.5%.
`CS(=O)(=O)N1CCC2(CC1)C(=O)NCN2c1ccccc1` showed an inhibition (HeLa [1]) of 47.5%.
For `CCC1/C=C/C=C/C[C@H](C)[C@@H](O)[C@](C)(O)C(=O)[C@@H](C)[C@H](O)[C@@H](C)C(=O)[C@H](C)[C@@H](O)[C@H](C)/C=C/C(=O)OC2[C@@H](C)C(CC1)OC1(CC[C@@H](C)C(C[C@H](C)O)O1)[C@@H]2C` (stereo not given in full), the Drug uptake [18] was “Active”, the Drug uptake [19] was “Active” and the Drug uptake [20] was “Active”.
In the case of `Cc1ccc(N2C=NC(=O)C23CCN(Cc2ccccc2)CC3)cc1`, the inhibition (HeLa [1]) is reported as 18.7%.
`O=C(c1ccccc1)N1CCC2(CC1)C(=O)NCN2c1ccccc1` gave an inhibition (HeLa [1]) of 43.9%.
Work on `O=C1N=CN(c2ccccc2)C12CCN(Cc1ccccc1)CC2` yielded an inhibition (HeLa [1]) of 41.4%.
`Cc1ccc(N2CNC(=O)C23CCN(Cc2ccccc2)CC3)cc1` gave an inhibition (HeLa [1]) of 18.1%.
For `O=C1N=CN(c2ccc(Cl)cc2)C12CCN(Cc1ccccc1)CC2`, the Activity (HeLa [2]) was “Non-Toxic”, the Activity (HeLa [3]) was “Toxic” and the Activity (HeLa [4]) was “Non-Toxic”. For the same compound, the Activity (HeLa [5]) was “Non-Toxic”, the inhibition (HeLa [6]) was “Active” and the Activity (HeLa [7]) was “Non-Toxic”. For the same compound, the inhibition (HeLa [1]) was 57.4%, the Activity (HeLa [8]) was “Non-Toxic” and the Activity (HeLa [9]) was “Toxic”. The Activity (HeLa [10]) was “Non-Toxic”, the inhibition (Mus musculus) was “Active” and the inhibition (HeLa [12]) was “Active”. For the same compound, the Activity (HeLa [13]) was “Non-Toxic”.
`COc1ccc(N2CNC(=O)C23CCN(Cc2ccccc2)CC3)cc1` showed an inhibition (HeLa [1]) of 26.2%.
`O=C1NCN(c2ccccc2)C12CCN(Cc1ccccc1)CC2` showed an inhibition (HeLa [1]) of 36.8%.
In the case of `O=C(Nc1ccccc1)N1CCC2(CC1)C(=O)NCN2c1ccccc1`, the inhibition (HeLa [1]) is reported as “inactive”.
Work on `O=C1NCN(c2ccc(F)cc2)C12CCN(S(=O)(=O)c1ccc(F)cc1)CC2` yielded an inhibition (HeLa [1]) of 9.1%.
For `O=C1N=CN(c2ccc(F)cc2)C12CCN(Cc1ccccc1)CC2`, the inhibition (HeLa [1]) was 28.8%.
With `O=C1NCN(c2ccccc2)C12CCN(C(=S)NC1CCCCC1)CC2` the inhibition (HeLa [1]) was 33.6%.
For `Cc1ccc(S(=O)(=O)N2CCC3(CC2)C(=O)NCN3c2ccccc2)cc1`, the Activity (HeLa [3]) was “Toxic”, the Retention_time [21] was 8.2 min and the Activity (HeLa [4]) was “Toxic”. The Drug uptake [18] was “Active”, the Activity (HeLa [22]) was “Active” and the inhibition (HeLa [1]) was 30.7 to 50%. The Activity (Homo sapiens) was “Active”, the Activity [23] was “inactive” and the Drug uptake [19] was “Not Active”. The inhibition (Mus musculus) was “Active” and the Drug uptake [20] was “Not Active”.
Compound `O=C1N=CN(c2cccc(C(F)(F)F)c2)C12CCN(Cc1ccccc1)CC2` has an inhibition (HeLa [1]) of 32.1%.
For `O=C1NCN(c2ccc(F)cc2)C12CCN(S(=O)(=O)c1ccc(Cl)s1)CC2`, the inhibition (HeLa [1]) was 12.6%.
`O=C1NCN(c2ccccc2)C12CCN(S(=O)(=O)c1ccc(F)cc1)CC2` gave an inhibition (HeLa [1]) of 45.5%.
With `CC(C)c1ccc(N2CNC(=O)C23CCN(Cc2ccccc2)CC3)cc1` the inhibition (HeLa [1]) was 20%.
`COc1ccc(N2C=NC(=O)C23CCN(Cc2ccccc2)CC3)cc1` showed an inhibition (HeLa [1]) of 43.8%.
Compound `O=C1NCN(c2ccc(Cl)cc2)C12CCN(Cc1ccccc1)CC2` has an inhibition (HeLa [1]) of 51.4%.
`O=C(NC1CCCCC1)N1CCC2(CC1)C(=O)NCN2c1ccccc1` showed an inhibition (HeLa [1]) of 51.3%.
